# Results from patent US12102634B2, “Use of berbamine or its analogue for preventing or treating RNA virus infection” (City University of Hong Kong, priority 2019, dated 2024).
# Entries after “also recorded” stand apart in the source; their conditions may differ. Like-named read-outs stand apart in the source and are kept apart here.
# How the values were obtained:
# ZIKV [1] = assay: Viral positive RNA strand hybridization in host cells treated with calcium chelator; format: cell-based, Zika virus
# JEV [2] = assay: Western blot of JEV envelope protein in A549 cells; conditions: dose dependent
# JEV [3] = assay: High-content image assay (DsRNA immunostaining), JEV infection of A549 cells; conditions: for JEV infection in A549 host cells (relative infectivity, FIG. 8A): 13 compounds from virtual screening; for entry of JEV into the host cells (FIG. 8B): A549 cells; for entry of JEV into the host cells (FIG. 8B) / JEV infection of host cells: about 50 MOI JEV; for JEV infection of host cells: A549 cells pretreated 1 h
# JEV [4] = assay: High-content image assay, JEV infection of JEG-3 cells; conditions: JEG-3 cells pretreated 1 h, about 50 MOI, 18 h
# ZIKV [5] = assay: High-content image assay, ZIKV infection of JEG-3 cells; conditions: JEG-3 cells pretreated 1 h, about 50 MOI, 18 h
# ZIKV [6] = assay: Western blot of ZIKV-E expression in ZIKV-infected A549 cells; conditions: A549 cells pretreated 1 h
# JEV [7] = assay: Western blot of JEV-NS1 expression in JEV-infected A549 cells; conditions: A549 cells pretreated 1 h
# TRPMLs = assay: ML-SA1-induced cytosolic Ca2+ increase in Fura-2-loaded HeLa cells; format: cell-based
# Method: (§1) HeLa cells were grown in 24-well plates to ˜80% confluency. The cells were then loaded with HBSS (Gibco, 14025092) containing 4 μM Fura-2 AM (Invitrogen, F1221) and 0.4% Pluronic™ F-127 (Invitrogen, P3000MP) at room temperature for 30 min. The cells were then washed with Ca^2+-free HBSS containing 2 mM EGTA and incubated in Ca^2+-free HBSS in the presence or absence of berbamine (10 μM) at room temperature for another 30 min. Fluorescence images were acquired at 3 s intervals by alternate excitation at 340 nm and 380 nm with emission at 510 nm using a Nikon Eclipse Ti-S Calcium imaging system. Approximately 1 min after live cell imaging, 200 μM GPN (Abcam, ab145914) or 25 μM ML-SA1 (Tocris Bioscience, 4746) was added to the cells to trigger Ca2+ release from the lysosomes.
# [8] = test system: MLV-SARS-CoV-2 S pseudotyped particles; format: cell-based
# SARS-CoV-2 [9] = assay: microbe, parasite or virus in culture; conditions: Severe acute respiratory syndrome coronavirus 2, Vero C1008, read-out: EC50, SARS-CoV-2 viral yield by qRT-PCR assay
# MERS-CoV = format: cell-based
# lysosomal Ca^2+ channels = assay: GPN-induced Ca2+ release from lysosomes in Fura-2-loaded HeLa cells; format: cell-based; conditions: 10 μM, 200 μM GPN
# Method: as §1
# lentivirus = assay: Lentivirus (histone B-RFP) infection of A549 cells; format: cell-based; conditions: pretreated A549 cells, lentivirus encoding histone B-RFP
# [10] = test system: MERS-SARS-CoV S pseudotyped particles; format: cell-based
# ACE2 = format: cell-based
# [11] = Cytotoxicity in Vero cells; conditions: African green monkey
# [12] = Cytotoxicity in BHK-21 cells; conditions: Syrian hamster
# DPP4 = format: cell-based
# JEV [13] = assay: JEV-induced cell death in A549 or BHK-21 cells; conditions: pretreated A549 cells or BHK-21 cells
# SARS-CoV-2 [14] = assay: in vitro; conditions: African green monkey
# ZIKV [15] = assay: High-content image assay (DsRNA immunostaining), ZIKV infection of A549 cells; conditions: for ZIKV infection of host cells: A549 cells pretreated 1 h, about 50 MOI ZIKV
# SARS-CoV-2 [16] = assay: SARS-CoV-2 infection of Vero-E6 cells, virus titration assay; format: cell-based; conditions: Severe acute respiratory syndrome coronavirus 2, Vero C1008, read-out: EC50, SARS-CoV-2 viral yield by virus titration assay
# Method: FIG. 12F is a plot showing the inhibition rate determined by using virus titer measurement, in which Vero-E6 cells were treated with berbamine at the indicated concentrations for 3 h, followed by infection with SARS-CoV-2.
# JEV [17] = assay: Virus titration assay, JEV production in A549 cells; conditions: A549 cells pretreated
# DENV-2 = assay: DsRNA immunostaining, DENV-2 infection of A549 cells; conditions: pretreated 1 h, about 10 MOI DENV-2, dose dependent
# EV-A71 = assay: High-content image assay, EV-A71 infection of RD cells; format: cell-based, enterovirus EV-A71 (EV-71); conditions: 10 MOI EV-71, read-out: EC50 against EV-A71 infection in RD cells
# From the text: After viral infection, the cells are fixed.
# [18] = Cytotoxicity in A549 cells; conditions: human
# JEV [19] = assay: JEV lethal challenge in mice; format: in vivo, BALB/c mice; conditions: 15 days
# Method: JEV-infected with berbamine-treated group. For infection, mice were injected intraperitoneally with approximately 10^6.5 TCID50 of JEV. For the berbamine treatment group, mice were injected intraperitoneally with a dose of 15 mg/kg berbamine or PBS daily. For the control-vehicle group, mice were injected intraperitoneally with a dose of 50 mg/kg PBS daily. Survival rate and change of body weight if the mice in each group were monitored for 15 days after JEV injection.
# [20] = Cytotoxicity in Huh7 cells; conditions: human
# [21] = Cytotoxicity in Hela cells; conditions: human
# Huh7 cells = assay: Secretion of extracellular vesicles by Huh7 cells, nanoparticle tracking analyzer; format: cell-based
# Method: The EVs were collected from the culture medium of control or berbamine-treated Huh7 cells, and their concentration and distribution of sizes were determined with a nanoparticle tracking analyzer.
# The inventors then examined whether these EVs contain elevated levels of ACE2 or DPP4 in the berbamine-treated group when compared with the control group. Thus, EVs in the culture medium from the control and berbamine-treated Huh7 cells were collected by ultracentrifugation, and the protein levels of ACE2 and DPP4 were analyzed by immunoblot analysis. […] The inventors also speculated that the increase in the secretion of ACE2 and DPP4-containing exosomes out of cells might lead to the reduced levels of these receptors in berbamine-treated cells. […] Similar results regarding the effects of berbamine on the expression of ACE2 in cells or EVs have also observed in A549 cells (FIGS. 15D and 15E). […] This leads to an increase in the level of secretion of ACE2 or DPP4 via EVs and a concomitant decrease in their levels at the plasma membrane.
# Purification of extracellular vesicles from the culture medium-A549 cells or Huh7 cells were grown in 15-cm dishes to ˜80% confluency. The cells were then rinsed with PBS and incubated in EV-depleted complete medium containing DMSO or berbamine (25 μM) for 48 h. […]
# ZIKV [22] = assay: ZIKV entry, anti-ZIKV envelope protein immunostaining in A549 cells; conditions: ZIKV on ice 1 h, then 37° C. 40 min
# [23] = EVs from treated Huh7 cell culture medium
# [24] = Vero-E6 cells, cycloheximide, 50 μM, 6 h
# [25] = 15 mg/kg intraperitoneally daily, vs control group
smiles,measurement,setting,value
CC(=O)OCOC(=O)CN(CC(=O)OCOC(C)=O)c1ccccc1OCCOc1ccccc1N(CC(=O)OCOC(C)=O)CC(=O)OCOC(C)=O [BAPTA-AM],viral positive RNA strand inside host cells,ZIKV [1],no ZIKV positive RNA strand was spotted
same,expression of JEV envelope protein,JEV [2],markedly inhibited
COc1cc(C(=O)N2c3ccccc3CCC2C)cc(OC)c1OC (stereo not drawn) [Compound #1],"JEV infection in A549 host cells (relative infectivity, FIG. 8A)",JEV [3],highest potency
same,entry of JEV into the host cells (FIG. 8B),JEV [3],effectively block
COc1cc2c(cc1OC)C(C)N(C(=O)c1ccc(Br)cc1)CC2 (stereo not drawn) [Compound #7],"JEV infection in A549 host cells (relative infectivity, FIG. 8A)",JEV [3],highest potency
same,entry of JEV into the host cells (FIG. 8B),JEV [3],effectively block
COc1cc2c(cc1OC)C(c1cc(OC)c(OC)c(OC)c1)OCC2 (stereo not drawn) [Compound #9],"JEV infection in A549 host cells (relative infectivity, FIG. 8A)",JEV [3],highest potency
same,entry of JEV into the host cells (FIG. 8B),JEV [3],effectively block
COc1cccc(C(=O)CC2c3c(cc4c(c3OC)OCO4)CCN2C)c1 (stereo not drawn) [Compound #11],"JEV infection in A549 host cells (relative infectivity, FIG. 8A)",JEV [3],highest potency
same,entry of JEV into the host cells (FIG. 8B),JEV [3],effectively block
COc1cc2c3cc1Oc1c(OC)c(OC)cc4c1[C@@H](Cc1ccc(OC(=O)c5ccc([N+](=O)[O-])cc5)c(c1)Oc1ccc(cc1)C[C@@H]3N(C)CC2)N(C)CC4 [E6 berbamine],JEV infection in JEG-3 cells,JEV [4],significantly inhibited
same,ZIKV infection in JEG-3 cells,ZIKV [5],significantly inhibited
same,protein expression of ZIKV-E,ZIKV [6],strong inhibition
same,protein expression of JEV-NS1,JEV [7],strong inhibition
"CC1CC(C)(C)N(C(=O)CN2C(=O)c3ccccc3C2=O)c2ccccc21 (stereo not drawn) [ML-SA1, reference compound]",cytosolic Ca2+ levels (agonist effect),TRPMLs; 25 μM,markedly increased
COc1cc2c3cc1Oc1c(OC)c(OC)cc4c1[C@@H](Cc1ccc(O)c(c1)Oc1ccc(cc1)C[C@@H]3N(C)CC2)N(C)CC4 [berbamine],entry of MLV-SARS-CoV-2 S pseudovirus particles,[8],effectively inhibited; also recorded: inhibited the entry
same,EC50,SARS-CoV-2 [9],~2.3 µM
same,extracellular level of MERS-CoV RNA,MERS-CoV,significantly decreased
same,intracellular level of MERS-CoV RNA,MERS-CoV,significantly decreased
same,JEV infection in JEG-3 cells,JEV [4],significantly inhibited
same,ZIKV infection in JEG-3 cells,ZIKV [5],significantly inhibited
same,GPN-induced cytosolic Ca2+ increase,lysosomal Ca^2+ channels,significantly inhibited
same,lentivirus infection of A549 cells,lentivirus,abolished
same,entry of MERS-SARS-CoV S pseudovirus particles,[10],effectively inhibited; also recorded: inhibited the entry
same,level of ACE2 in EVs,ACE2; [23],markedly increased
same,level of ACE2 in cells,ACE2; [24],markedly decreased
same,CC50,[11],115 ± 5.3 µM
same,CC50,[12],127 ± 2.43 µM
same,level of DPP4 in EVs,DPP4; [23],markedly increased
same,level of DPP4 in cells,DPP4; [24],markedly decreased
same,JEV-induced cell death,JEV [13],markedly reduced
same,selectivity ratio,SARS-CoV-2 [14],48.9
same,selectivity ratio,ZIKV [15]; human,58.4
same,EC50,SARS-CoV-2 [16],~4.7 µM
same,selectivity ratio,JEV [3]; human,78.2
same,production of JEV (virus titer),JEV [17],significantly inhibited; also recorded: markedly inhibited
same,protein expression of ZIKV-E,ZIKV [6],markedly inhibited
same,DENV-2 infection in A549 cells,DENV-2,significantly inhibit
same,EC50,EV-A71,~17.3 µM
same,EC50,"EV-A71; Enterovirus A, EV71 / EVA71, RD",~17 µM
same,CC50,[18],127 ± 3.9 µM
same,body weight change of mice after JEV challenge,JEV [19]; [25],less weight changes
same,survival rate of mice after JEV challenge,JEV [19]; [25],increases the survival rate
same,survival rate of mock (uninfected) mice given compound vs mock group,JEV [19]; mock group with 15 mg/kg,same survival rate
same,CC50,[20],90.4 ± 2.98 µM
same,CC50,[21],115 ± 3.6 µM
same,ML-SA1-induced cytosolic Ca2+ increase,"TRPMLs; 10 μM, 25 μM ML-SA1",significantly inhibited
same,secretion of EVs,Huh7 cells,significantly promoted
same,protein expression of JEV-NS1,JEV [7],markedly inhibited
same,entry of ZIKV into host cells,ZIKV [22],inhibitory effect
COc1ccc2cc1Oc1ccc(cc1)C[C@H]1c3cc(c(OC)cc3CCN1C)Oc1c(O)c(OC)cc3c1[C@H](C2)N(C)CC3 [fangchinoline],JEV infection in JEG-3 cells,JEV [4],significantly inhibited
same,ZIKV infection in JEG-3 cells,ZIKV [5],significantly inhibited
same,ZIKV infection of host cells,ZIKV [15],significantly inhibited
same,JEV infection of host cells,JEV [3],significantly inhibited
same,DENV-2 infection in A549 cells,DENV-2,significantly inhibit
COc1ccc2cc1Oc1ccc(cc1)C[C@H]1c3cc(c(OC)cc3CCN1C)Oc1c(OC)c(OC)cc3c1[C@@H](C2)N(C)CC3 [isotetrandrine],JEV infection in JEG-3 cells,JEV [4],significantly inhibited
same,ZIKV infection in JEG-3 cells,ZIKV [5],significantly inhibited
same,ZIKV infection of host cells,ZIKV [15],significantly inhibited
same,JEV infection of host cells,JEV [3],significantly inhibited
same,DENV-2 infection in A549 cells,DENV-2,significantly inhibit
